Results reported in the supplement of paper PMC8612539.
Converted amounts (≈) assume the structure as drawn.

Tested on: Pasteurella multocida
Assay: minimum inhibitory concentration (MIC)
Description: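 Broth microdilution MIC (Sensititre BOPO7F bovine plate, CLSI methods) of 19 antimicrobials against field isolates of P. multocida, M. haemolytica, H. somni (deep nasopharyngeal swabs) and E. coli, Enterococcus spp. (rectal swabs) from weaned dairy heifers. Incubation 16-24 h at 35 C. MIC is the lowest concentration preventing visible growth. Values with <= or > lie at the tested range limits. Trimethoprim-sulfamethoxazole is given as the trimethoprim component of a 1:19 mixture.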

CC1(C)S[C@@H]2[C@H](NC(=O)Cc3ccccc3)C(=O)N2[C@H]1C(=O)O [Penicillin]
Conditions | minimum inhibitory concentration [µg/mL]
isolate (source animal id): 10 | 0.25 (≈ 0.748 µM)
isolate (source animal id): 11 | 0.25 (≈ 0.748 µM)
isolate (source animal id): 12 | 0.25 (≈ 0.748 µM)
isolate (source animal id): 19 | 0.25 (≈ 0.748 µM)
isolate (source animal id): 23 | ≤ 0.12
isolate (source animal id): 26 | 0.25 (≈ 0.748 µM)
isolate (source animal id): 98 | ≤ 0.12
isolate (source animal id): 104 | ≤ 0.12
isolate (source animal id): 115 | ≤ 0.12
isolate (source animal id): 117 | 0.25 (≈ 0.748 µM)
isolate (source animal id): 118 | ≤ 0.12
isolate (source animal id): 121 | 0.25 (≈ 0.748 µM)
isolate (source animal id): 124 | 0.25 (≈ 0.748 µM)
isolate (source animal id): 125 | 0.25 (≈ 0.748 µM)
isolate (source animal id): 128 | ≤ 0.12
isolate (source animal id): 131 | 0.25 (≈ 0.748 µM)
isolate (source animal id): 135 | 0.25 (≈ 0.748 µM)
isolate (source animal id): 136 | 0.25 (≈ 0.748 µM)
isolate (source animal id): 140 | 0.25 (≈ 0.748 µM)
isolate (source animal id): 144 | ≤ 0.12
isolate (source animal id): 146 | ≤ 0.12
isolate (source animal id): 150 | ≤ 0.12
isolate (source animal id): 151 | ≤ 0.12
isolate (source animal id): 153 | ≤ 0.12
isolate (source animal id): 155 | 0.25 (≈ 0.748 µM)
isolate (source animal id): 157 | ≤ 0.12
isolate (source animal id): 160 | ≤ 0.12
isolate (source animal id): 164 | ≤ 0.12
isolate (source animal id): 165 | ≤ 0.12
isolate (source animal id): 167 | ≤ 0.12
isolate (source animal id): 168 | 0.25 (≈ 0.748 µM)
isolate (source animal id): 169 | ≤ 0.12
isolate (source animal id): 170 | > 8
isolate (source animal id): 171 | ≤ 0.12
isolate (source animal id): 172 | ≤ 0.12
isolate (source animal id): 173 | 0.25 (≈ 0.748 µM)
isolate (source animal id): 174 | ≤ 0.12
isolate (source animal id): 175 | ≤ 0.12
isolate (source animal id): 176 | ≤ 0.12
isolate (source animal id): 177 | ≤ 0.12
isolate (source animal id): 178 | ≤ 0.12
isolate (source animal id): 179 | ≤ 0.12
isolate (source animal id): 182 | ≤ 0.12
isolate (source animal id): 192 | ≤ 0.12
isolate (source animal id): 193 | ≤ 0.12
isolate (source animal id): 195 | ≤ 0.12
isolate (source animal id): 196 | ≤ 0.12
isolate (source animal id): 197 | ≤ 0.12
isolate (source animal id): 198 | 0.25 (≈ 0.748 µM)
isolate (source animal id): 199 | ≤ 0.12
isolate (source animal id): 200 | ≤ 0.12
isolate (source animal id): 201 | ≤ 0.12
isolate (source animal id): 203 | ≤ 0.12
isolate (source animal id): 204 | ≤ 0.12
isolate (source animal id): 205 | 0.25 (≈ 0.748 µM)
isolate (source animal id): 206 | ≤ 0.12
isolate (source animal id): 207 | ≤ 0.12
isolate (source animal id): 208 | ≤ 0.12
isolate (source animal id): 209 | ≤ 0.12
isolate (source animal id): 210 | 0.25 (≈ 0.748 µM)
isolate (source animal id): 213 | ≤ 0.12
isolate (source animal id): 216 | ≤ 0.12
isolate (source animal id): 223 | 0.25 (≈ 0.748 µM)
isolate (source animal id): 227 | ≤ 0.12
isolate (source animal id): 229 | ≤ 0.12
isolate (source animal id): 233 | ≤ 0.12
isolate (source animal id): 234 | ≤ 0.12
isolate (source animal id): 237 | ≤ 0.12
isolate (source animal id): 241 | ≤ 0.12
isolate (source animal id): 245 | ≤ 0.12
isolate (source animal id): 247 | ≤ 0.12
isolate (source animal id): 250 | ≤ 0.12
isolate (source animal id): 254 | 0.25 (≈ 0.748 µM)
isolate (source animal id): 255 | ≤ 0.12
isolate (source animal id): 258 | ≤ 0.12
isolate (source animal id): 261 | ≤ 0.12
isolate (source animal id): 262 | ≤ 0.12
isolate (source animal id): 269 | ≤ 0.12
isolate (source animal id): 270 | ≤ 0.12
isolate (source animal id): 274 | ≤ 0.12
isolate (source animal id): 275 | 0.25 (≈ 0.748 µM)
isolate (source animal id): 276 | 0.25 (≈ 0.748 µM)
isolate (source animal id): 277 | ≤ 0.12
isolate (source animal id): 278 | ≤ 0.12
isolate (source animal id): 279 | 0.25 (≈ 0.748 µM)
isolate (source animal id): 280 | 0.25 (≈ 0.748 µM)
isolate (source animal id): 284 | 0.25 (≈ 0.748 µM)
isolate (source animal id): 285 | 0.25 (≈ 0.748 µM)
isolate (source animal id): 287 | 0.25 (≈ 0.748 µM)
isolate (source animal id): 290 | 0.25 (≈ 0.748 µM)
isolate (source animal id): 294 | 0.25 (≈ 0.748 µM)
isolate (source animal id): 295 | 0.25 (≈ 0.748 µM)
isolate (source animal id): 296 | ≤ 0.12
isolate (source animal id): 307 | 0.25 (≈ 0.748 µM)
isolate (source animal id): 310 | 0.25 (≈ 0.748 µM)
isolate (source animal id): 311 | 0.25 (≈ 0.748 µM)
isolate (source animal id): 312 | ≤ 0.12
isolate (source animal id): 313 | 0.25 (≈ 0.748 µM)
isolate (source animal id): 315 | 0.25 (≈ 0.748 µM)
isolate (source animal id): 316 | 0.25 (≈ 0.748 µM)

CC1(C)S[C@@H]2[C@H](NC(=O)[C@H](N)c3ccccc3)C(=O)N2[C@H]1C(=O)O [Ampicillin]
Conditions | minimum inhibitory concentration [µg/mL]
isolate (source animal id): 10 | ≤ 0.25
isolate (source animal id): 11 | ≤ 0.25
isolate (source animal id): 12 | ≤ 0.25
isolate (source animal id): 19 | ≤ 0.25
isolate (source animal id): 23 | ≤ 0.25
isolate (source animal id): 26 | ≤ 0.25
isolate (source animal id): 98 | ≤ 0.25
isolate (source animal id): 104 | ≤ 0.25
isolate (source animal id): 115 | ≤ 0.25
isolate (source animal id): 117 | ≤ 0.25
isolate (source animal id): 118 | ≤ 0.25
isolate (source animal id): 121 | ≤ 0.25
isolate (source animal id): 124 | 0.5 (≈ 1.43 µM)
isolate (source animal id): 125 | ≤ 0.25
isolate (source animal id): 128 | ≤ 0.25
isolate (source animal id): 131 | ≤ 0.25
isolate (source animal id): 135 | ≤ 0.25
isolate (source animal id): 136 | ≤ 0.25
isolate (source animal id): 140 | ≤ 0.25
isolate (source animal id): 144 | ≤ 0.25
isolate (source animal id): 146 | ≤ 0.25
isolate (source animal id): 150 | ≤ 0.25
isolate (source animal id): 151 | ≤ 0.25
isolate (source animal id): 153 | ≤ 0.25
isolate (source animal id): 155 | ≤ 0.25
isolate (source animal id): 157 | ≤ 0.25
isolate (source animal id): 160 | ≤ 0.25
isolate (source animal id): 164 | ≤ 0.25
isolate (source animal id): 165 | ≤ 0.25
isolate (source animal id): 167 | ≤ 0.25
isolate (source animal id): 168 | ≤ 0.25
isolate (source animal id): 169 | ≤ 0.25
isolate (source animal id): 170 | 8 (≈ 22.9 µM)
isolate (source animal id): 171 | ≤ 0.25
isolate (source animal id): 172 | ≤ 0.25
isolate (source animal id): 173 | ≤ 0.25
isolate (source animal id): 174 | ≤ 0.25
isolate (source animal id): 175 | ≤ 0.25
isolate (source animal id): 176 | ≤ 0.25
isolate (source animal id): 177 | ≤ 0.25
isolate (source animal id): 178 | ≤ 0.25
isolate (source animal id): 179 | ≤ 0.25
isolate (source animal id): 182 | ≤ 0.25
isolate (source animal id): 192 | ≤ 0.25
isolate (source animal id): 193 | ≤ 0.25
isolate (source animal id): 195 | ≤ 0.25
isolate (source animal id): 196 | ≤ 0.25
isolate (source animal id): 197 | ≤ 0.25
isolate (source animal id): 198 | ≤ 0.25
isolate (source animal id): 199 | ≤ 0.25
isolate (source animal id): 200 | ≤ 0.25
isolate (source animal id): 201 | ≤ 0.25
isolate (source animal id): 203 | ≤ 0.25
isolate (source animal id): 204 | ≤ 0.25
isolate (source animal id): 205 | ≤ 0.25
isolate (source animal id): 206 | ≤ 0.25
isolate (source animal id): 207 | ≤ 0.25
isolate (source animal id): 208 | ≤ 0.25
isolate (source animal id): 209 | ≤ 0.25
isolate (source animal id): 210 | ≤ 0.25
isolate (source animal id): 213 | ≤ 0.25
isolate (source animal id): 216 | ≤ 0.25
isolate (source animal id): 223 | ≤ 0.25
isolate (source animal id): 227 | ≤ 0.25
isolate (source animal id): 229 | ≤ 0.25
isolate (source animal id): 233 | ≤ 0.25
isolate (source animal id): 234 | ≤ 0.25
isolate (source animal id): 237 | ≤ 0.25
isolate (source animal id): 241 | ≤ 0.25
isolate (source animal id): 245 | ≤ 0.25
isolate (source animal id): 247 | ≤ 0.25
isolate (source animal id): 250 | ≤ 0.25
isolate (source animal id): 254 | ≤ 0.25
isolate (source animal id): 255 | ≤ 0.25
isolate (source animal id): 258 | ≤ 0.25
isolate (source animal id): 261 | ≤ 0.25
isolate (source animal id): 262 | ≤ 0.25
isolate (source animal id): 269 | ≤ 0.25
isolate (source animal id): 270 | ≤ 0.25
isolate (source animal id): 274 | ≤ 0.25
isolate (source animal id): 275 | ≤ 0.25
isolate (source animal id): 276 | ≤ 0.25
isolate (source animal id): 277 | ≤ 0.25
isolate (source animal id): 278 | ≤ 0.25
isolate (source animal id): 279 | ≤ 0.25
isolate (source animal id): 280 | ≤ 0.25
isolate (source animal id): 284 | ≤ 0.25
isolate (source animal id): 285 | ≤ 0.25
isolate (source animal id): 287 | ≤ 0.25
isolate (source animal id): 290 | ≤ 0.25
isolate (source animal id): 294 | ≤ 0.25
isolate (source animal id): 295 | ≤ 0.25
isolate (source animal id): 296 | ≤ 0.25
isolate (source animal id): 307 | ≤ 0.25
isolate (source animal id): 310 | ≤ 0.25
isolate (source animal id): 311 | ≤ 0.25
isolate (source animal id): 312 | ≤ 0.25
isolate (source animal id): 313 | ≤ 0.25
isolate (source animal id): 315 | ≤ 0.25
isolate (source animal id): 316 | ≤ 0.25
